Values of other authors in patent publication US20230265432A1, “METHODS AND COMPOSITIONS FOR TREATING ACUTE MYELOID LEUKEMIA” (Sanford Burnham Prebys Medical Discovery Institute, priority 2021, published 2023).
Where a name gives a salt, the structure may show the parent alone.

How the values were obtained:
SIRT3 = SIRT3 (Homo sapiens, UniProt Q9NTG7); conditions: cited from earlier work
SIRT2 = SIRT2 (Homo sapiens, UniProt Q8IXJ6); conditions: cited from earlier work
[1] = target: T1, HIV-1 reverse transcriptase (Human immunodeficiency virus type 1 group M subtype B, UniProt P04585); conditions: cited from earlier work
T1 construct: HIV-1 reverse transcriptase

yeast Hmt1p = yeast Hmt1p (Saccharomyces cerevisiae, UniProt P38074); conditions: cited from earlier work
yeast Hmt1p, sequence (P38074 whole entry): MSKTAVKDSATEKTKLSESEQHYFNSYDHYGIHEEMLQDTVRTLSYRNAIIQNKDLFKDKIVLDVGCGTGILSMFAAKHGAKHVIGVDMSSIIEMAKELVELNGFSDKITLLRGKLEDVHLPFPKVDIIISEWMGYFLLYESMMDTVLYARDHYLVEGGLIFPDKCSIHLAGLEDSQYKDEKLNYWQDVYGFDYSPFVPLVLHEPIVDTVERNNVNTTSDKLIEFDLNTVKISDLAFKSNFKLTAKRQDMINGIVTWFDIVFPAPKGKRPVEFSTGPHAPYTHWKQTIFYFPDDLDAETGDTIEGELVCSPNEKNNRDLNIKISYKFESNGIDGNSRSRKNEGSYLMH

SMYD2 = SMYD2 (Homo sapiens, UniProt Q9NRG4); conditions: cited from earlier work
[2] = test system: phosphorylation of histone 2A at Thr120 in DU-145 human prostate cancer cells; conditions: cited from earlier work
HDAC2 = HDAC2 (Homo sapiens, UniProt Q92769); conditions: cited from earlier work
HuT-78 cells = conditions: cited from earlier work
HCT116 = conditions: cited from earlier work
HDAC6 = target: T2, HDAC6 (Homo sapiens, UniProt Q9UBN7); conditions: cited from earlier work
T2 sequence (Q9UBN7 1-1215): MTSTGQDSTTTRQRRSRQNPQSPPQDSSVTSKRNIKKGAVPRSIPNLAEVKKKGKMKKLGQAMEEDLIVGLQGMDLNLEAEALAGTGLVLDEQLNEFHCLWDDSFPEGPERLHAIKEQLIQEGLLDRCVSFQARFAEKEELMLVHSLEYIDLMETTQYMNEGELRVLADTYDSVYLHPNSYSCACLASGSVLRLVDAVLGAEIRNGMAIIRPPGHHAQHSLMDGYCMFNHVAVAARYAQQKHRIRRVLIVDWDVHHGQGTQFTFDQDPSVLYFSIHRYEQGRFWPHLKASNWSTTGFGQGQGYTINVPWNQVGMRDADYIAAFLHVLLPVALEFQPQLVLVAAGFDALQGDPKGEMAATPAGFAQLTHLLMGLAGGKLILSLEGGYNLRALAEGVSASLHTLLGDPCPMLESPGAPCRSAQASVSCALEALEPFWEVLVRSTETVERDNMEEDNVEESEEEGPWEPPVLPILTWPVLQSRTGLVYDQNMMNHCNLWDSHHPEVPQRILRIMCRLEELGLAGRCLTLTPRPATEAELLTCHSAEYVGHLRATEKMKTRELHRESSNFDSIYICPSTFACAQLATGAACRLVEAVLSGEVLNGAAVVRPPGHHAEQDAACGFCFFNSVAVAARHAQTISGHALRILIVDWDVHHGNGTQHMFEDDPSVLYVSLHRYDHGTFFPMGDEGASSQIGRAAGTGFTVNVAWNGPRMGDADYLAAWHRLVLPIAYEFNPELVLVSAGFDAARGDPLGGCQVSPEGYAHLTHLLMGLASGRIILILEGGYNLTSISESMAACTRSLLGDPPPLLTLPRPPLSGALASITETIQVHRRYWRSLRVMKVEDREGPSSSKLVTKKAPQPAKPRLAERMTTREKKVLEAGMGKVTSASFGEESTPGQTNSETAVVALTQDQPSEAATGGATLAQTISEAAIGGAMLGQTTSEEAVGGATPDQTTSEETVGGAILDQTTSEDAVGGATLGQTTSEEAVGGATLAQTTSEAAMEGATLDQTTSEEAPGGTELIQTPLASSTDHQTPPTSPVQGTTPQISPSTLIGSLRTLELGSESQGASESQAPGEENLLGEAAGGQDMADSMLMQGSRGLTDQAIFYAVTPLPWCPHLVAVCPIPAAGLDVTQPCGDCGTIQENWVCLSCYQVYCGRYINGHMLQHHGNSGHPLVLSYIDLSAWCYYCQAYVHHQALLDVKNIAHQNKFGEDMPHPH

HDAC4 = HDAC4 (Homo sapiens, UniProt P56524); conditions: cited from earlier work
human dermal fibroblasts = conditions: cited from earlier work
neuroblastoma tumor = conditions: 200 mg/kg; cited from earlier work
HDAC8 = HDAC8 (Homo sapiens, UniProt Q9BY41); conditions: cited from earlier work
EZH2 (Y641F) = EZH2 (Y641F) (Homo sapiens, UniProt Q15910, Y641F); conditions: cited from earlier work
EZH2 = EZH2 (Homo sapiens, UniProt Q15910); conditions: cited from earlier work
EZH2, sequence (Q15910 whole entry, species assumed): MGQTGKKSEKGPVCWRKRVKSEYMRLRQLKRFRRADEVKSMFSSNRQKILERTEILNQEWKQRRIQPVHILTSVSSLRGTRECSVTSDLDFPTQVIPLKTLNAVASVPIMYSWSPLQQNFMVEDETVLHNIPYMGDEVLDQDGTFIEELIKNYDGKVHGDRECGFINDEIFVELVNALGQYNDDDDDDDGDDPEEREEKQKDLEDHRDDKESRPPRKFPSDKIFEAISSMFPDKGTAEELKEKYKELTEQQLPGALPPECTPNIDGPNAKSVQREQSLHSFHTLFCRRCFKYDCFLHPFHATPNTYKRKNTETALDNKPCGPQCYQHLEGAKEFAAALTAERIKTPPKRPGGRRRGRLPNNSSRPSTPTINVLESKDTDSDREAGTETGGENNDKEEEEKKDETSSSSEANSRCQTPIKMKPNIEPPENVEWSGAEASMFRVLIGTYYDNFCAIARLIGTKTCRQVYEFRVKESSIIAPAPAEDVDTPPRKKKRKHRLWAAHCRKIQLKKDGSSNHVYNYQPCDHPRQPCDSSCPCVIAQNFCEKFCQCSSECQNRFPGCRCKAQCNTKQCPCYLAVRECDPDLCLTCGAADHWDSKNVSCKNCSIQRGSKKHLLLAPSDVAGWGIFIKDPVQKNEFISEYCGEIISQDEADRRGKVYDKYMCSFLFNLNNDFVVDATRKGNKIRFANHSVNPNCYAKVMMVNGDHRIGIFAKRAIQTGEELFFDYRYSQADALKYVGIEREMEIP

[3] = test system: trimethylation of the PRC2 target H3K27; conditions: cited from earlier work
[4] = test system: trimethylation of H3K27 in HCC1806 cells; conditions: cited from earlier work
REV-ERBa = REV-ERBa (Homo sapiens, UniProt P20393); conditions: agonist; cited from earlier work
BRD2 = BRD2 (Homo sapiens, UniProt P25440); conditions: cited from earlier work
BRD3 = BRD3 (Homo sapiens, UniProt Q15059); conditions: cited from earlier work
[5] = test system: EZH2 mutant DLBCL cell lines; conditions: proliferation; cited from earlier work
EZH1 = EZH1 (Homo sapiens, UniProt Q92800); conditions: cited from earlier work
EZH1, sequence (Q92800 whole entry, species assumed): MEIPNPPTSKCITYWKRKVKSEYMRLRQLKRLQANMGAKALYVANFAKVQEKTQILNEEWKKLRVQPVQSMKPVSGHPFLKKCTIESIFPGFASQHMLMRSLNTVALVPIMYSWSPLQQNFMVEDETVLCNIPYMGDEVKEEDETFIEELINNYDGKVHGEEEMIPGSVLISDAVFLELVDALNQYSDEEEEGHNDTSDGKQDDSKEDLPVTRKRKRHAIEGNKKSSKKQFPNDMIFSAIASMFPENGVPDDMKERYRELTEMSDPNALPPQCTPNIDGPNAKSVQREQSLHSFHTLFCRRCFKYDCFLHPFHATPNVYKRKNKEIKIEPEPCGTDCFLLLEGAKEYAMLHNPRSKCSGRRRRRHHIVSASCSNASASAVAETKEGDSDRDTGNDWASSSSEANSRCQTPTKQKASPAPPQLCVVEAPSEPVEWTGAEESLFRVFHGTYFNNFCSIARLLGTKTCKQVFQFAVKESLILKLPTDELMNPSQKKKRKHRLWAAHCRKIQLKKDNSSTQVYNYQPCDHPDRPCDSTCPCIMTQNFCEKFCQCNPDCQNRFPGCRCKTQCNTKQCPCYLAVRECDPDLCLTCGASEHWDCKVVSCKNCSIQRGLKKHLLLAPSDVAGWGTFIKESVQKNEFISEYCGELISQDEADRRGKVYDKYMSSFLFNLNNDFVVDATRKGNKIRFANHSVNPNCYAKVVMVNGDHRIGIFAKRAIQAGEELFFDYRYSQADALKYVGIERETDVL
EZH1, sequence (O75530 whole entry partner, species assumed): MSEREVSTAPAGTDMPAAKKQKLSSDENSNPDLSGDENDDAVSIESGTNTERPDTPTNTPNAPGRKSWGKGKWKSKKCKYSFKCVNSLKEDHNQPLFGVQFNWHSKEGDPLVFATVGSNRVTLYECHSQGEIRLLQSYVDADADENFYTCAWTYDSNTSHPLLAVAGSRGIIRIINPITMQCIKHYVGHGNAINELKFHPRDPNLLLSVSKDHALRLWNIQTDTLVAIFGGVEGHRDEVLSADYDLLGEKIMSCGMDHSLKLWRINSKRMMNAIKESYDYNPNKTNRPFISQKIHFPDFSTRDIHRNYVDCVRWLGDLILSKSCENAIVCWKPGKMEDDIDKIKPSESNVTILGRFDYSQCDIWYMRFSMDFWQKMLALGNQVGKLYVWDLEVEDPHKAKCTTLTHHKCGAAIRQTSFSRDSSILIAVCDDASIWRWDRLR
EZH1, sequence (Q15022 whole entry partner, species assumed): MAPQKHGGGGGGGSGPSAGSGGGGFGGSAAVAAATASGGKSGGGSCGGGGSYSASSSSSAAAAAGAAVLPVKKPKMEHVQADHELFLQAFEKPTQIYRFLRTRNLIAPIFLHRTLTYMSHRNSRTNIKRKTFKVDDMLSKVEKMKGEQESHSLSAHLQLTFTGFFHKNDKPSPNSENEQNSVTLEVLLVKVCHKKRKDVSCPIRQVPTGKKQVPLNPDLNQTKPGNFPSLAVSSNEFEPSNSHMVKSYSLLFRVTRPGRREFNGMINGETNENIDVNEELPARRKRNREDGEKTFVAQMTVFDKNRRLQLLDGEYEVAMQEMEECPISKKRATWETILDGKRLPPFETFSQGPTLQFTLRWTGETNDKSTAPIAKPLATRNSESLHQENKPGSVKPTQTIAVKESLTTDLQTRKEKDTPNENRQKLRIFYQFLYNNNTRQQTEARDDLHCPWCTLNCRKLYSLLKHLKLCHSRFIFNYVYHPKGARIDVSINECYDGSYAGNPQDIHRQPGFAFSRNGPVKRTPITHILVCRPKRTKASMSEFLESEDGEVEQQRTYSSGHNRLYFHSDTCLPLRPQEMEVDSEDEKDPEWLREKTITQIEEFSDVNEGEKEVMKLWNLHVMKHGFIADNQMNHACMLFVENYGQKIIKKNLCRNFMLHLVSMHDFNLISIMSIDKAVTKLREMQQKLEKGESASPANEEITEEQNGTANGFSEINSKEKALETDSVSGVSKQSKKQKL
EZH1, sequence (Q09028 whole entry partner, species assumed): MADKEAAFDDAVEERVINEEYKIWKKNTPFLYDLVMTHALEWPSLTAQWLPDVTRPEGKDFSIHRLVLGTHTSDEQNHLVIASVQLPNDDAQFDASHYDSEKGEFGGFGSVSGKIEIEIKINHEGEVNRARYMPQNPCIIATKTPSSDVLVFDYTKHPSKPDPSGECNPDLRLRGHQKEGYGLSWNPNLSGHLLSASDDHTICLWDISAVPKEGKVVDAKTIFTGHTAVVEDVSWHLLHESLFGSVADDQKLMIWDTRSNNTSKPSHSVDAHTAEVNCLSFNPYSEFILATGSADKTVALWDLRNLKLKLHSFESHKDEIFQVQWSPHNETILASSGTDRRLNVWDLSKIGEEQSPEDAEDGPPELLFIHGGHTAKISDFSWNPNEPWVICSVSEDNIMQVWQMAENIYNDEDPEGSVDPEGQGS

UTX = UTX (Homo sapiens, UniProt O15550); conditions: as measured by mass spectrometry; cited from earlier work
[6] = test system: various cancer cell lines; conditions: proliferation; cited from earlier work
CBP = CBP (Homo sapiens, UniProt Q92793); conditions: cited from earlier work
JMJD2B = JMJD2B (Homo sapiens, UniProt O94953); conditions: cited from earlier work
JMJD2A = JMJD2A (Homo sapiens, UniProt O75164); conditions: cited from earlier work
[7] = test system: p53K370 monomethylation in cells; conditions: cited from earlier work
MOF = MOF (Homo sapiens, UniProt Q9H7Z6); conditions: cited from earlier work
MOF, sequence (Q9H7Z6 whole entry, species assumed): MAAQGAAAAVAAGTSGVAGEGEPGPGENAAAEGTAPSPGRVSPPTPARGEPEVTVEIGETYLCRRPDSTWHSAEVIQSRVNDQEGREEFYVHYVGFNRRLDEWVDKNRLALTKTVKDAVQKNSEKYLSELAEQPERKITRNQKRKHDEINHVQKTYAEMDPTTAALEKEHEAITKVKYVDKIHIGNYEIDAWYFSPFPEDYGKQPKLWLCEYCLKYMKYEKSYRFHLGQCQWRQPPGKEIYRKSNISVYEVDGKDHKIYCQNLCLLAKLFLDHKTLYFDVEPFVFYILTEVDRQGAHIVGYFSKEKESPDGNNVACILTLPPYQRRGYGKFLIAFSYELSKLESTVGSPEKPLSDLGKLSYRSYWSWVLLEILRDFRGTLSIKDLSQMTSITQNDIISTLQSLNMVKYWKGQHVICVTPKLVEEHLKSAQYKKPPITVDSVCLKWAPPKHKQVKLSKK

[8] = target: jumonji histone demethylase (JMJD2); conditions: cited from earlier work
PARP = conditions: cited from earlier work
DNA methyltransferase = conditions: cited from earlier work
[9] = test system: HDAC activity in HeLa cell nuclear lysates; conditions: cited from earlier work
[10] = test system: histone methylation in cells; conditions: cited from earlier work
SIRT5 = SIRT5 (Homo sapiens, UniProt Q9NXA8); conditions: cited from earlier work
SIRT5, sequence (Q9NXA8 37-310, species assumed): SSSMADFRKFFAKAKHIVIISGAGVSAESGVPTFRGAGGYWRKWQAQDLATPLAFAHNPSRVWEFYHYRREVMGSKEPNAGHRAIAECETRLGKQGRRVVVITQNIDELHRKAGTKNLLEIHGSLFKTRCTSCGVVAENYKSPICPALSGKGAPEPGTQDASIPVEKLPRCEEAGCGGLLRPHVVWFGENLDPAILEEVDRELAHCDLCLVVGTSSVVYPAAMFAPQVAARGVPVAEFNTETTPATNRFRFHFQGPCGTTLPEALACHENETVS

[11] = target: G9a and GLP methyltransferases; conditions: competitive with H3K9 substrates; cited from earlier work
[12] = test system: H3K9 dimethylation in MDA-MB231 cells; conditions: cited from earlier work
[13] = test system: H3K9 dimethylation levels in PANC-1 cells; conditions: cited from earlier work
GLP = GLP (Homo sapiens, UniProt Q9H9B1); conditions: cited from earlier work
[14] = test system: H3K27methylation in MCF10A cells; conditions: cited from earlier work
WDR5 = WDR5 (Homo sapiens, UniProt P61964); conditions: cited from earlier work
MLL core complex = MLL core complex (Homo sapiens, UniProt P61964); conditions: in vitro; cited from earlier work
JAK2 = target: T3, JAK2 (Homo sapiens, UniProt O60674, V617F); conditions: in HEL cells; cited from earlier work
T3 construct: endogenous in cells; host or cells: HEL cells

STAT3 = target: T4, STAT3 (Homo sapiens, UniProt P40763); conditions: in HEL cells; cited from earlier work
T4 construct: endogenous in cells; host or cells: HEL cells

EGFR = EGFR (Homo sapiens, UniProt P00533); conditions: cited from earlier work

SIRT3, sequence (Q9NTG7 whole entry, species assumed): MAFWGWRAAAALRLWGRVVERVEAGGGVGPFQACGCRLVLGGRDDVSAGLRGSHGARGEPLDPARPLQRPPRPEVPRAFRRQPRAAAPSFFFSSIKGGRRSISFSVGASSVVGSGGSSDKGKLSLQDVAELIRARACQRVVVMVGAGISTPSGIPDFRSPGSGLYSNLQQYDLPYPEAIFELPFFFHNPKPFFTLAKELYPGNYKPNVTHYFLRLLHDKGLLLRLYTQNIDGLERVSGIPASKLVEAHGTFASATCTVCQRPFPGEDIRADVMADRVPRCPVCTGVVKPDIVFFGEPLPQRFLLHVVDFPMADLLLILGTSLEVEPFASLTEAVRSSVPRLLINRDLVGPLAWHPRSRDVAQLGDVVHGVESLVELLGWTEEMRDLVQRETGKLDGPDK
SIRT2, sequence (Q8IXJ6 whole entry, species assumed): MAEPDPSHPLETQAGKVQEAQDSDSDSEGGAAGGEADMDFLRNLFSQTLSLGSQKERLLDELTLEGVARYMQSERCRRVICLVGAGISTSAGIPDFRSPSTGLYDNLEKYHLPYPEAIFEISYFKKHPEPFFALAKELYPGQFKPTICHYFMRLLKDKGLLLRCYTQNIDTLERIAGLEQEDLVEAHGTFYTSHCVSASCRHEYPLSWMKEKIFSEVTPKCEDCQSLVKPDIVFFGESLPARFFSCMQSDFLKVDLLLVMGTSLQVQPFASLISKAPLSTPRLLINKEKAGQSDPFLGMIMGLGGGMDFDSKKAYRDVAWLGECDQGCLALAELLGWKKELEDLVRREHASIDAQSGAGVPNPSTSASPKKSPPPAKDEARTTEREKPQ

## N#C/C(=C\c1ccc(-c2cc(Cl)ccc2Cl)o1)C(=O)Nc1cccc2cccnc12 [AGK7]
SIRT3
  IC50: > 5000 nM
SIRT2
  IC50: > 50000 nM

## O=C(Nc1ccc2c(O)cc(S(=O)(=O)O)cc2c1)Nc1ccc2c(O)cc(S(=O)(=O)O)cc2c1 [AMI-1 (sodium salt)]
[1]
  IC50: 5000 nM
Yeast Hmt1p
  IC50: 3000 nM

## O=C1COc2c(CCNCCN(C(=O)CCNCCc3ccc(Cl)c(Cl)c3)C3CCCCC3)ccc(O)c2N1 [AZ 505]
SMYD2
  IC50: 120 nM

## C(=N\Nc1ncnc2sc3c(c12)CCCC3)/c1c[nH]c2ccccc12 [B32B3]
[2]
  IC50: 500 nM

## CCOC(=O)NCCCC(=O)NCCc1ccccc1 [CAY10683]
HDAC2
  IC50: 0.119 nM
HuT-78 cells
  GI50: 1400 nM
HCT116
  GI50: 29400 nM
HDAC6
  IC50: 434 nM
HDAC4
  IC50: > 1000 nM
Human dermal fibroblasts
  GI50: > 100000 nM

## O=C(/C=C/c1cccc(C(=O)NO)c1)NO [CBHA]
Neuroblastoma tumor
  neuroblastoma tumor growth: completely suppresses neuroblastoma tumor growth in SCID

## Cc1cc(Cl)ccc1OCCCC(=O)NO [Droxinostat]
HDAC8
  IC50: 1460 nM

## CCC(CC)n1ccc2c(C(=O)NCc3c(C)cc(C)[nH]c3=O)cc(C#N)cc21 [EI1]
EZH2 (Y641F)
  IC50: 13 nM
EZH2
  IC50: 15 nM

## Cc1cc(C)c(CNC(=O)c2cc(-c3ccc(CN4CCOCC4)cc3)cc3c2cnn3C2CCCC2)c(=O)[nH]1 [EPZ005687]
[3]
  IC50: 80 nM

## CCCc1cc(C)[nH]c(=O)c1CNC(=O)c1cc(-c2ccnc(N3CCN(C)CC3)c2)cc2c1cnn2C(C)C [GSK343]
[4]
  IC50: 174 nM
EZH2
  IC50: 4 nM

## CC(C)(C)OC(=O)CN(Cc1ccc(Cl)cc1)Cc1ccc([N+](=O)[O-])s1 [GSK4112]
REV-ERBa
  EC50: 400 nM

## CC(=O)N1c2ccc(-c3ccc(C(=O)O)cc3)cc2[C@H](Nc2ccc(Cl)cc2)C[C@@H]1C [GSK1324726A (I-BET726)]
BRD2
  IC50: 41 nM
BRD3
  IC50: 31 nM

## CC[C@H](C)n1cc(C)c2c(C(=O)NCc3c(C)cc(C)[nH]c3=O)cc(-c3ccc(N4CCNCC4)nc3)cc21 [GSK 126]
[5]
  IC50: 28 to 61 nM
EZH1
  IC50: 680 nM
  Ki: 89 nM

## O=C(O)CCNc1cc(N2CCc3ccccc3CC2)nc(-c2ccccn2)n1 [GSK-J1 (sodium salt)]
UTX
  IC50: 56000 nM

## c1ccc([C@@H]2C[C@H]2NC2CCNCC2)cc1 [GSK-LSD1 (hydrochloride)]
[6]
  EC50: < 5 nM

## CCC(=O)N1CCOc2c(cc(-c3ccc(OC)c(OC)c3)cc2OC[C@H]2CCCN(C)C2)C1 [I-CBP112 (hydrochloride)]
CBP
  Kd: 142 nM

## Clc1ccc(N/N=C(\c2ccccc2)c2ccccn2)nc1 [JIB-04]
JMJD2B
  IC50: 435 nM
JMJD2A
  IC50: 445 nM

## Cc1cn(CCN2CCN(c3ccccc3-c3cc(C#N)cc(C(=O)NCCCN4CCCC4)c3)CC2)c2ccccc12 [LLY-507]
[7]
  IC50: ~600 nM

## CCCCCCCc1ccc(CCc2cccc(O)c2C(=O)O)cc1 [MG149]
MOF
  IC50: 47000 nM

## CN(C)CCCNC(=O)c1ccc(-c2cc(O)c3ncccc3c2)cc1 [ML324]
[8]
  IC50: 920 nM

## CN(C)CC(=O)Nc1ccc2[nH]c(=O)c3ccccc3c2c1 [PJ34]
PARP
  EC50: 20 nM

## O=C(O)C(Cc1c[nH]c2ccccc12)N1C(=O)c2ccccc2C1=O (centres unmarked) [RG108]
DNA methyltransferase
  IC50: 115 nM

## C#CCCCC(=O)Nc1ccc(C(=O)c2ccc(NC(=O)CCCCCCC(=O)NO)cc2)cc1 [SAHA-BPyne]
[9]
  IC50: ~3000 nM

## O=C(NCC(=O)N1CCCC1)Nc1ccc2cnccc2c1 [SGC707]
[10]
  IC50: < 1000 nM

## O=c1[nH]c(=S)[nH]c(-c2ccccc2)c1Cc1c(O)ccc2ccccc12 [SIRT1/2 Inhibitor IV]
SIRT5
  IC50: > 300000 nM

## COc1cc2c(NC3CCN(C(C)C)CC3)nc(N3CCC(F)(F)CC3)nc2cc1OCCCN1CCCC1 [UNC0642]
[11]
  Ki: 3.7 nM
[12]
  IC50: 110 nM
[13]
  IC50: 40 nM

## COc1cc2c(NC3CCN(C4CCCCC4)CC3)nc(N3CCCN(C(C)C)CC3)nc2cc1OCCCN1CCCCC1 [UNC0646]
GLP
  IC50: 15 nM
[12]
  IC50: 26 nM

## CCCc1cc(C)[nH]c(=O)c1CNC(=O)c1cc(-c2ccc(N3CCN(C(C)C)CC3)nc2)cc2c1cnn2C(C)C [UNC1999]
[14]
  IC50: 124 nM
EZH2
  IC50: 2 nM

## COC(=O)c1ccc(N2CCN(C)CC2)c(NC(=O)c2cccc(OC)c2)c1 [WDR5-0103]
WDR5
  Kd: 450 nM
MLL core complex
  IC50: 39000 nM

## C[C@H](NC(=O)/C(C#N)=C/c1cccc(Br)n1)c1ccccc1 [WP1066]
JAK2
  IC50: 2300 nM
STAT3
  IC50: 2430 nM

## AG-490 (Tyrphostin B42)
EGFR
  fold more selective for EGFR versus ErbB2: 135 fold
